Assay results as given in paper PMC12077799, “Fragment-based drug discovery for transthyretin kinetic stabilisers using a novel capillary zone electrophoresis method” (PLOS One, 2025).
Like-named read-outs stand apart in the source and are kept apart here.

Experiments:
[1] = target: T1, Human transthyretin (TTR) (Homo sapiens, UniProt P02766); experiment: Co-crystallisation of TTR-ligand complex, X-ray hit confirmation; assay type: binding; settings: fragment seen in ligand-omitted difference density at >= 2σ in one or both binding sites; full or partial density
T1 construct: purchased SCIPAC (Sittingbourne, Kent, UK) P171-1
Description: Crystals were grown by vapor diffusion using a published crystallisation cocktail (100 mM HEPES pH 7.5, 200 mM CaCl2, 28% v/v PEG400) at 21 °C [29]. The hanging drop contained 1 μL of crystallisation cocktail, 1 μL of diluted ligand and 1 μL of TTR protein solution (85 μM). […] Crystals were harvested and flash cooled in a N2 cryostream or dipped into liquid ethane without cryoprotectant. Data was collected at Diamond Light Source (Oxon, UK) beamline I24, I04 or I04-1 (Pilatus 6M or ADSC Q315) or the European Synchrotron Radiation Facility (ESRF, Grenoble, France) beamline ID29 (Pilatus 6M-F) or in-house (Bruker X8 Diffractometer with APEXII CCD detector). Crystal unit cell was initially indexed by software MOSFLM [30] and LABELIT [31] within the EDNA [32] automatic data processing workflow. Diffraction image integration was performed by XDS [33] and reflection intensities were scaled by SCALA [34] or by PROTEUM2 if collected in-house. Phases were obtained by molecular replacement method using PHASER [35], 1DVQ from the Protein Data Bank (PDB) was used as the search model. Atomic positions of the initial model were refined by REFMAC5 [36]. Model building and ligand fitting was completed using COOT [37]. Model graphics were generated using CCP4MG [38]. Crystallographic statistics of all structures can be found in S4 Table.

TTR [2] = target: T2, TTR (Homo sapiens, UniProt P02766); experiment: Isothermal titration calorimetry (ITC); assay type: binding
T2 construct: purchased SCIPAC (Sittingbourne, Kent, UK) P171-1
Description: All ITC experiments were conducted on an iTC200 calorimeter (GE Healthcare), and the settings were 25 °C, stir at 1000 RPM, 1–2 μL injection spaced with 100–150 seconds, reference power: 6 μcal/sec. Isotherms were fitted using ORIGIN 7 software (OriginLab, MA, USA). To prepare TTR ITC protein solution (5 mL), purified and freeze-dried human TTR was weighted and dissolved in 310 μL of pure water. The reconstituted protein solution was then desalted by spin column (Bio-Rad, Bio-Gel P6) and the eluted volume was transferred to a 15mL falcon tube. The protein solution was further diluted with 10x Phosphate Buffered Saline (PBS, 500 μL), DMSO (150 μL) and water, (f/c: 4.3 mM Na2HPO4, 137 mM NaCl, 2.7 mM KCl, 1.47 mM KH2PO4, 3% DMSO v/v, TTR 19.35–25 μM, pH 7.8). UV A260/280 was measured to obtain the actual protein concentration using a calculated extinction coefficient of 18450 M^-1 cm^-1. To prepare ligand ITC solution (1 mL), 30 μL of ligand stock in DMSO was diluted with 10x PBS (100 μL) and water (f/c: 4.3 mM Na2HPO4, 137 mM NaCl, 2.7 mM KCl, 1.47 mM KH2PO4, 3% DMSO v/v, Ligand 280–600 μM, pH 7.8).

[3] = target: T3, TTR in undiluted normal human reference plasma (Homo sapiens, UniProt P02766); experiment: 125I-T4 displacement assay in neat normal human plasma; assay type: binding; settings: neat normal human plasma; 4-parameter logistic fit
T3 construct: The TTR in plasma was immunoprecipitated by sheep anti-human prealbumin polyclonal antibody; tissue Precision Biologic Inc., Nova Scotia, Canada
Description: The assay was adapted from one described previously. Briefly, test ligand and ^125I-T4 (Perkin Elmer Inc., Waltham, MA) were mixed with undiluted normal human reference plasma (Precision Biologic Inc., Nova Scotia, Canada). The TTR in plasma was immunoprecipitated by sheep anti-human prealbumin polyclonal antibody (The Binding Site Group Ltd., Birmingham, UK). The immunoprecipitate was washed with buffer and their radioactivity measured with a 2470 WIZARD automatic gamma counter (Perkin Elmer Inc., Waltham, MA). […] Percentage of total radioligand binding for samples of different ligand concentration was then calculated as follows: […]
To calculate IC50 values, percentage of total radioligand binding at different concentration points were entered in SigmaPlot™ 11.0. Titration curves were done in triplicates with a minimum of 5 data points fitted by 4-Parameter Logistic Function.

TTR [4] = target: T2, TTR; experiment: Induced near-UV circular dichroism of ligand on TTR binding; settings: induced CD signal 280–320 nm, TTR 13.62 μM
Description: CD experiments were conducted in Diamond Light Source (Oxon, UK) beamline B23 installed with an Olis™ DSM 20 CD spectrophotometer. CD Buffer (10 mM Tris-HCl, 5 mM NaCl, pH 8.0) was prepared and loaded (450 μL) into a UV cuvette (10 mm path length). The near-UV (260–380 nm) CD spectrum of the solution was measured. 1 μL of SFL001535 10 mM DMSO stock was added into the cuvette and mixed by inversion. The CD spectrum of this solution was measured again. Contents of the cuvette containing SFL001535 in buffer were removed and the cuvette was washed with nitric acid. CD Buffer containing 13.62 μM of TTR was loaded into the cuvette and the near-UV CD spectrum of TTR was obtained (measured 10 times). A total of 8 μL of SFL001535 10 mM stock was added to the solution in 4 step additions (1 + 1 + 2 + 4 μL) and the CD spectrum were measured after each addition. The induced CD of SFL001535 was calculated by subtracting the CD spectrum of TTR alone.

[5] = N = number of non-hydrogen atoms

c1ccc2c(-c3cn[nH]c3)ccnc2c1 [SFL001535, 4-(3H-pyrazol-4-yl)quinoline]
Confirmed by X-ray [1]: Yes 9H7I
Kd (TTR [2]; 25 °C, PBS pH 7.8, 3% DMSO, read-out: ITC Kd1 ± SD (N = 3)): 260 nM
Kd (TTR [2]; 25 °C, PBS pH 7.8, 3% DMSO, read-out: ITC Kd2 ± SD (N = 3)): 1960 nM
Kd (TTR [2]; Fig 8 isotherm, ± standard error of curve fitting, read-out: ITC Kd1 of shown isotherm): 260 ± 88.2 nM
Kd1 LE (Ligand Efficiency, ΔG/N) (TTR [2]; [5]): 0.60 kcal/mol
Kd2 LE (Ligand Efficiency, ΔG/N) (TTR [2]; [5]): 0.52 kcal/mol
IC50 [3]: 34500 ± 12400 nM
binding to TTR by induced CD (TTR [4]): confirmed
